Data reported in ChEMBL document CHEMBL5608181, “Discovery of indazole inhibitors for heat shock protein 90 as anti-cancer agents” (Eur J Med Chem, 2024).
Active and inactive are the calls of the source. The calls are words filed in the database; no cut-off is given here.

How the values were obtained:
BT-474 = assay: Antiproliferative activity against human BT-474 cells assessed as inhibition of cell viability at 10 uM measured after 72 hrs by CellTiter 96 Aqueous One Solution Cell Proliferation Assay; format: functional, cell-based
HEK293 = assay: Cytotoxicity against HEK293 cells assessed as reduction in cell viability at 10 uM measured after 72 hrs by CellTiter 96 Aqueous One Solution Cell Proliferation Assay; format: toxicity, cell-based; details: human, hek293, 72 h
JIMT-1 = assay: Antiproliferative activity against human JIMT-1 cells assessed as inhibition of cell viability at 10 uM measured after 72 hrs by CellTiter 96 Aqueous One Solution Cell Proliferation Assay; format: functional, cell-based

**Q.** For COCCn1cc(NC(=O)c2ccc3c(c2OC)C=CC(C)(C)O3)c2cccnc21, which Activity (BT-474) is on record?
**A.** Its Activity is “Active”.

**Q.** And the Activity (HEK293)?
**A.** The Activity was “Toxic”.

**Q.** What about the Activity (JIMT-1) of the same molecule?
**A.** Its Activity is “Active”.
